From patent publication US6855325B1, “Use of hypo-osmotic saline solutions and medicine based on said solutions” (Laboratoires GOEMAR S.A., priority 1999, dated 2005)
Entries after “also recorded” stand apart in the source; their conditions may differ.

Columns and labels:
[1] = system: normal human epidermic keratinocytes; experiment: cytotoxic effect: percentage of proteins remaining in keratinocytes after 4 hours of incubation; format: cell-based; details: 4 hours incubation
Experimental: For the examination of the toxicity, normal human epidermic keratinocytes were used which were taken from epidermis samples; they consist especially in keratinocytes isolated from the remains of an operation of an abdominal plasty carried out on a person (patient No. 10020).
These keratinocytes were cultivated at 37° C. in a culture medium intended for keratinocytes or MCK, i.e. the one which is marketed under the designation “SFM defined-keratinocyte medium” by the company GIBCO under a humid atmosphere containing 5% of CO2 until confluence of the monolayers.
These six products were incubated during 4 hours in the cultures of the keratinocytes.
Before the incubation, the cells, i.e. the keratinocytes, were rinsed with the tested products in order to eliminate any trace of culture medium.
The saline solutions J, I, H, and K and the physiological serum were used without dilution.
The dexamethasone has been tested at 10 μM in the medium MCK.
The cultures of keratinocytes were incubated in the presence of the six products during 4 hours at 37° C., under a humid atmosphere containing 5% of CO2.
The control cultures, incubated in the medium MCK in the absence of the six products, were carried out in parallel.
All these trials were carried out three times. […]

interleukine IL-8 = experiment: release of interleukine IL-8 in cultures of keratinocytes under the influence of MCK medium; format: cell-based, human; details: 4 hours incubation; saline solutions and physiological serum without dilution, dexamethasone 10 μM in MCK; control MCK = 100
From the text: Then the ability of the hypoosmotic saline solutions used according to the invention to prevent and to limit the release under the influence of certain diseases or certain pro-inflammatory agents of the chemical mediators responsible for the starting of the cutaneous inflammatory phenomena has been examined.
The tested chemical mediator was interleukine IL-8.
The pro-inflammatory agent was consisting of the MCK culture medium which appears to be at the origin of a strong release of interleukine IL-8 in cultures of keratinocytes.
The procedure was similar to that used in the above disclosed tests concerning the estimation of the cytotoxicity of the various tested products.
These products were the same.
The duration of the incubation was also equal to 4 hours.
Under the influence of the MCK medium, the release of interleukine IL-8 was 100 pg/mg of proteins; in that same medium determination has been carried out of the amounts of interleukine IL-8 released in the presence of the six tested products, i.e. on the one hand, the products J, I, H, K as well as physiological serum which were used without dilution and, on the other hand, dexamethasone which has been used at the rate of 10 μM in the MCK medium.

C[C@@H]1C[C@H]2[C@@H]3CCC4=CC(=O)C=C[C@]4(C)[C@@]3(F)[C@@H](O)C[C@]2(C)[C@@]1(O)C(=O)CO [Dexamethasone, dexamethasone]
cytotoxic effect with respect to keratinocytes (in words) [1]: not cytotoxic; also recorded: very few cytotoxic
amounts of interleukine IL-8 released (interleukine IL-8): 74 pg of IL-8/mg of proteins
